Experiment in all cases: growth of human tumour cells (NCI), 48 h
The subject of test [1] is HCC 2998.
For test [2], the system named is Malme-3M.
Test [3] concerns UACC-62.
The test system of test [4] is SNB-75.
Test [5] relates to HCT-15.
Test [6] relates to COLO 205.
In test [7] the test system is SR.
The test system of test [8] is RXF 393.
The test system of test [9] is HCT-116.
Test [10] relates to EKVX.
The subject of test [11] is OVCAR-8.
Test [12] concerns HOP-92.
Test [13] concerns M14.
Test [14] has as its system HOP-62.
Test [15] deals with SF-295.
The test system of test [16] is NCI-H23.
Test [17] concerns SNB-19.
Test [18] has as its system A498.
Test [19] deals with OVCAR-3.
Test [20] concerns NCI/ADR-RES.

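All cell lines were grown in 96-well plates and treated with compound for 48 hours. Here, GI50 denotes the concentration required for 50% inhibition of growth.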 Activity calls are given as the source filed them. Rule as the data show it: active = GI50 up to about 1.1 µM and inactive = higher. Where only a bound is given, the exact number is not on record here.

Take `CN/C=C(/c1ccc(OC)cc1)C(O)c1ccc(OC)c(OC)c1` (configuration not stated): the GI50 in test [1] was > 100 µM (inactive); in test [2] it was > 100 µM (inactive); in [3], > 100 µM (inactive); in test [4] it was 69.8 µM (inactive); in test [5] it was greater than 100 µM; in test [6], > 100 µM (inactive). Also, the GI50 in [7], in test [8], in [9], in test [10], in test [11] and in test [12] was > 100 µM (inactive) throughout. In addition, the GI50 in test [13], in test [14], in test [15], in test [16], in test [17] and in [18] was > 100 µM (inactive) each time. Also, in [19], the GI50 was > 100 µM (inactive).
Turning to `CC1=C[C@H](O)[C@@]2(C)[C@@H]([C@@H]1C)[C@H]1CC[C@@H]3[C@@]4(C)CC[C@H](O)C(C)(C)[C@@H]4CC[C@@]3(C)[C@]1(C)C[C@@H]2O`, the GI50 in [1] was 18.8 µM (inactive); in test [2], 20.6 µM (inactive); in test [3], 18.8 µM (inactive); in test [5] it was 19 µM; in test [6], 16.6 µM (inactive); in test [8], 17.6 µM (inactive). The GI50 in [9] was 12.4 µM (inactive); in [10], 12.4 µM (inactive); in test [11] it was 20.6 µM (inactive); in test [12], 13.8 µM (inactive); in test [13], 17.1 µM (inactive); in test [14] it was 17.3 µM (inactive). Moreover, the GI50 in test [20] is 19.8 µM (inactive); in test [15], 16.1 µM (inactive); in test [16], 23.1 µM (inactive); in [17] it was 15.8 µM (inactive); in test [19], 16.8 µM (inactive).
`CN(C)c1ccc2c(c1)C(=O)N(OS(=O)(=O)c1ccc([N+](=O)[O-])cc1)C2=O`: the GI50 is 24.6 µM (inactive) in [1]; 31.2 µM (inactive) in test [2]; 17.1 µM (inactive) in [3]; 31.6 µM (inactive) in [4]; 33.2 µM in test [5]; 24.3 µM (inactive) in test [6]. For the same compound, the GI50 in test [7] is 22.4 µM (inactive); in test [8], 13.9 µM (inactive); in test [9], > 10 µM (inactive); in test [10], 42.7 µM (inactive); in [11], 25.5 µM (inactive); in [12], > 10 µM (inactive). For the same compound, the GI50 was 17.4 µM (inactive) in test [13]; 37.1 µM (inactive) in test [14]; 25.2 µM (inactive) in test [15]; 26.2 µM (inactive) in test [16]; 41.7 µM (inactive) in test [17]; 59.7 µM (inactive) in test [18]. Moreover, the GI50 in [19] was > 10 µM (inactive).
Turning to `OCC(O)CNc1ccnc2cc(Cl)ccc12` (configuration not stated), the GI50 in test [1] is > 100 µM (inactive); in test [2], > 100 µM (inactive); in [3], > 100 µM (inactive); in test [4], > 100 µM (inactive); in [5], greater than 100 µM; in test [6], > 100 µM (inactive). In addition, the GI50 in test [7], in test [8], in [9], in test [10], in test [11] and in test [12] was > 100 µM (inactive) each time. For the same compound, the GI50 in [13], in test [14], in test [15], in test [16], in test [17] and in test [18] was > 100 µM (inactive) in each case. The GI50 in [19] was > 100 µM (inactive).
`O=C(NCc1cccnc1)C1COc2cc(-c3cc(=O)c4ccccc4o3)ccc2O1` (configuration not stated): the GI50 in [1] was > 100 µM (inactive); in test [2], > 64.6 µM (inactive); in test [3] it was 30.4 µM (inactive); in [4] it was 3.49 µM (inactive); in [5] it was 77.3 µM; in [6] it was > 100 µM (inactive). For the same compound, the GI50 was 5.46 µM (inactive) in test [7]; 28.7 µM (inactive) in [8]; 21.7 µM (inactive) in test [9]; > 81.5 µM (inactive) in test [10]; 3.64 µM (inactive) in test [11]; > 75.3 µM (inactive) in test [12]. Further, the GI50 in test [13] was 5.27 µM (inactive); in test [14], 10.1 µM (inactive); in [15], 7.6 µM (inactive); in test [16] it was 13.6 µM (inactive); in [17] it was 19.8 µM (inactive); in test [18], > 61.4 µM (inactive). Also, the GI50 in test [19] was > 100 µM (inactive).
For the compound `COc1cccc(/C=C2\N=C(Cl)OC2=O)c1O`, the GI50 was > 100 µM (inactive) in test [1]; > 100 µM (inactive) in test [2]; > 100 µM (inactive) in test [3]; 30.5 µM (inactive) in [4]; greater than 100 µM in test [5]; > 100 µM (inactive) in test [6]. Moreover, the GI50 in test [7] is > 88.9 µM (inactive); in test [8] it was > 100 µM (inactive); in [9], > 100 µM (inactive); in [10], > 100 µM (inactive); in test [11] it was > 100 µM (inactive); in test [12], > 100 µM (inactive). Moreover, the GI50 in test [13], in test [14], in test [15], in test [16], in test [17] and in [18] was > 100 µM (inactive) in each case. The GI50 in test [19] is > 100 µM (inactive).
With `Cc1cc(Cl)ccc1NC(=O)CC/C(CC(=O)C(C)C)=N\NC(=O)C[n+]1ccccc1`, the GI50 was > 100 µM (inactive) in test [1]; > 100 µM (inactive) in test [2]; > 100 µM (inactive) in test [3]; > 100 µM (inactive) in [4]; greater than 100 µM in test [5]; > 100 µM (inactive) in test [6]. Moreover, the GI50 in test [7], in test [8], in test [9], in test [10], in test [11] and in [12] was > 100 µM (inactive) each time. The GI50 in test [13], in test [14], in test [15], in test [16], in test [17] and in test [18] was > 100 µM (inactive) each time. Moreover, the GI50 in test [19] was > 100 µM (inactive).
Consider `O=C(c1ccccc1)C(C(=O)c1ccccc1)C1(O)C(=O)c2ccccc2C1=O`, for which the GI50 was 39.4 µM (inactive) in test [1]; 24.2 µM (inactive) in test [2]; 32.6 µM (inactive) in test [3]; 24.8 µM (inactive) in test [4]; 44.2 µM in test [5]; 45.4 µM (inactive) in [6]. In addition, the GI50 in test [7] was 29.1 µM (inactive); in test [8], 0.253 µM (active); in [9] it was > 10 µM (inactive); in [10] it was 32.5 µM (inactive); in [11] it was 25.6 µM (inactive); in test [12], 25.8 µM (inactive). Also, the GI50 in test [13] is 26.9 µM (inactive); in test [14] it was 29.4 µM (inactive); in test [15], 28.2 µM (inactive); in [16], 28.6 µM (inactive); in [17], 37.3 µM (inactive); in [18], 47.4 µM (inactive). In test [19], the GI50 was 26.6 µM (inactive).
Regarding `CCOC(=O)C(/N=N\c1ccc(S(N)(=O)=O)cc1)C(C)=O` (configuration not stated), the GI50 is 99.5 µM (inactive) in test [1]; > 100 µM (inactive) in test [2]; > 100 µM (inactive) in test [3]; > 100 µM (inactive) in test [4]; greater than 100 µM in test [5]; > 100 µM (inactive) in test [6]. Besides, the GI50 in test [7], in test [8], in test [9], in test [10], in test [11] and in test [12] was > 100 µM (inactive) each time. The GI50 in test [13], in test [14], in test [15], in test [16], in test [17] and in test [18] was > 100 µM (inactive) throughout. Moreover, in test [19], the GI50 was > 100 µM (inactive).
Consider `CC1CC/C(=C\c2ccc(Cl)cc2)C2OC(N)=C(C#N)C(c3ccc(Cl)cc3)=C12` (configuration not stated), for which the GI50 was 14.5 µM (inactive) in [2]; 16.2 µM (inactive) in test [3]; 11.1 µM in test [5]; 12.5 µM (inactive) in test [6]; 14.6 µM (inactive) in test [8]; 12.6 µM (inactive) in test [9]. The GI50 in test [10] is 5.55 µM (inactive); in [11] it was 13.9 µM (inactive); in test [13], 16.2 µM (inactive); in test [14] it was 2.18 µM (inactive); in test [20] it was 11.6 µM (inactive); in [16] it was 13.6 µM (inactive). Besides, the figures for the GI50 in [17] and in [19] were 20.4 µM (inactive) and 11.7 µM (inactive), respectively.
`COc1ccc(/C=C/C(=O)c2sc(-n3nc(-c4ccccc4)cc3-c3ccccc3)nc2C)cc1`: the GI50 is > 10 µM (inactive) in [1]; > 10 µM (inactive) in test [2]; > 10 µM (inactive) in test [3]; 8.43 µM (inactive) in [4]; 75.2 µM in test [5]; > 10 µM (inactive) in test [6]. For the same compound, the GI50 in [7] was > 10 µM (inactive); in [8], > 10 µM (inactive); in [9], > 10 µM (inactive); in [10], 6.25 µM (inactive); in [11], > 10 µM (inactive); in [12] it was > 10 µM (inactive). For the same compound, the GI50 in [13], in test [14], in [15], in [16], in test [17] and in test [18] was > 10 µM (inactive) each time. Besides, the GI50 in test [19] was 62.5 µM (inactive).

(Values after ChEMBL document CHEMBL1201862, “PubChem BioAssay data set” (2004).)
